Molecules are shown by their SMILES. Several values for one entry are separate records, joined by “and”; a condition that tells them apart may be missing. Identical values can stand only once.

This data set can be described thus: Confirmation of drug delivery activity to brain (doxorubicin concentration by fluorometer). It is filed as in vivo. The note with it: rabbit. Here is the method: A triolein emulsion having a W/O/W double structure and an average particle diameter of 7 μm was prepared in the same manner as described above. After diluting by mixing 0.2 ml (2%) of the emulsion in 10 ml of physiological saline, 7 ml of the emulsion diluted in the same procedure as in the experiment in which the trypan blue was added to 1.7 kg male rabbits distributed from Semtako and doxorubicin, a water-soluble drug, were injected, and 2 hours later, the brain of the rabbit was excised and the concentration of doxorubicin was measured using a fluorometer. At this time, three brain tissues were taken off and measured three times.

The mark [1] stands for this setting: 7 ml diluted W/O/W triolein emulsion and doxorubicin injected, 2 hours later, single measurements.
Setting [2] is: with W/O/W triolein emulsion, 2 hours, Average.

Take `COc1cccc2c1C(=O)c1c(O)c3c(c(O)c1C2=O)C[C@@](O)(C(=O)CO)C[C@@H]3O[C@H]1C[C@H](N)[C@H](O)[C@H](C)O1` [Doxorubicin, doxorubicin]: under setting [1], the “Doxorubicin concentration in the left brain (RFU)” value is 64 RFU and 77 RFU and 89 RFU and 78 RFU and 65 RFU and 70 RFU and 53 RFU and 88 RFU; the “Doxorubicin concentration in the right brain (RFU)” value was 420 RFU and 445 RFU and 431 RFU and 444 RFU and 455 RFU and 464 RFU and 437 RFU and 428 RFU. Under setting [2], the “Doxorubicin concentration in the left brain (RFU)” value came out at 73.56 RFU, the “Doxorubicin concentration in the right brain (RFU)” value was 439.11 RFU and the “Right brain doxorubicin/left brain doxorubicin ratio” value was determined as 6.12.

(Values after patent US20220096376A1, “DRUG DELIVERY PLATFORM USING W/O/W-TYPE TRIOLEIN EMULSION PROMOTIVE OF BLOOD-BRAIN BARRIER OPENING” (PUSAN NATIONAL UNIVERSITY INDUSTRY-UNIVERSITY COOPERATION …, priority 2019, published 2022).)
